Values of other authors as cited in US20210400960A1, “INSECT REPELLENT COMPOSITION” (Mother Earth Dermatics (MED) GMBH, priority 2018, published 2021).

Test system: insects
Details: depending on the concentration

Question: With `CCN(CC)C(=O)c1cccc(C)c1` [DEET, N,N-diethyl-m-toluamide] as the compound, how does the “Duration of repellent effect” value read?
Answer: 6 to 8 h
